These results are taken from patent US11964938B2, “3-phenyl-4-hexynoic acid derivatives as GPR40 agonists” (CELON PHARMA S.A., priority 2018, dated 2024).

Counter-ions that a name gives are not always drawn.

For orientation: IC50 means the concentration at which inhibition is half-maximal. A higher IC50 goes with a need for much substance.

For data set [1], the target named is T1, OAT1 (Homo sapiens, UniProt Q4U2R8).
T1 construct: host or cells: HEK293
T1 sequence (Q4U2R8 1-563): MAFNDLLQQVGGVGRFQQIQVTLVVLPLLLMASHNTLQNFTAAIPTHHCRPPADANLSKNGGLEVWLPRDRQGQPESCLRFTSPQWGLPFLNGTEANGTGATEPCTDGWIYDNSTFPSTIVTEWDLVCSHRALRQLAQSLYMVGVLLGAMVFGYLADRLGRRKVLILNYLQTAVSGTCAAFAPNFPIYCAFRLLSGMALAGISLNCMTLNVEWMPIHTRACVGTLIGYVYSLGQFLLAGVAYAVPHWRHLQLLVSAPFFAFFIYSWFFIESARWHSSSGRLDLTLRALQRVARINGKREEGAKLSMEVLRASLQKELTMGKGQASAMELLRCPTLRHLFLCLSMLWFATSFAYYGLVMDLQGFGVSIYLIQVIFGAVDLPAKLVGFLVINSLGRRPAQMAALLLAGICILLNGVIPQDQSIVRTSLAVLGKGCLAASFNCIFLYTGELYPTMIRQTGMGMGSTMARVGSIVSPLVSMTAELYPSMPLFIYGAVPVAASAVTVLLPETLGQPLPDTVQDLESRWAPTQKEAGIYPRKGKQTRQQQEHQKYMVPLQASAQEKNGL
The data set can be described thus: Uptake transporter inhibition assay, OAT1. The data set is classed as cell-based. As to conditions: HEK293 cells overexpressing transporter. How it is done: (§1) Experiment B4: Bile Acid Transporters Inhibition in the Liver.
(§2) The compound was tested on a panel of 10 transporters: BSEP, MRP2, MRP3, MRP4 in a vesicular transport inhibition assay and NTCP, OAT1, OAT2v1, OATP1A2, OATP1B1, OATP1B3 in an uptake transporter inhibition assays.
(§3) Transporter uptake inhibition test was performed on mammal HEK293 cells overexpressing of a respective transporter. Cells were cultured at 37±1° C. and seeded on 96-well tissue culture plate at 1×10^5/well. Substrate was removed prior to experiment and cells were washed twice with 100 μl of respective buffer (HK pH 7.4 for OATP1B1 and HBSS pH 7.4 for NTCP, OAT1, OAT2v1, OATP1A2, and OATP1B3). Uptake studies were performed at 37±1° C. in 50 μl of respective buffer containing radioactively tagged substrate and tested compound or solvent.
(§4) After experiment cells were washed twice with 100 μl of ice-cold respective buffer and lysed with 50 μl of 0.1M NaOH. Transport of radioactively tagged substrate was determined by scintillation counter measurement.

Data set [2] deals with T2, MRP2 (Homo sapiens, UniProt Q92887).
T2 construct: host or cells: HEK293 (membrane vesicles)
Put plainly: Vesicular transport inhibition assay, MRP2. The data set is classed as biochemical. As to conditions: membrane vesicles from HEK293 cells. How it is done: Experiment B4: Bile Acid Transporters Inhibition in the Liver. […] The compound was tested on a panel of 10 transporters: BSEP, MRP2, MRP3, MRP4 in a vesicular transport inhibition assay and NTCP, OAT1, OAT2v1, OATP1A2, OATP1B1, OATP1B3 in an uptake transporter inhibition assays. Vesicular transport inhibition assay was performed on membrane vesicles isolated from mammal HEK293 cells overexpressing human ABC transporters. Tested compound were incubated with vesicles and substrates for respective tested transporters. Incubation was performed in the presence of 4 mM ATP or AMP in order to differentiate between uptake by a transporter and passive diffusion into vesicles. In the case of MRP2 and MRP3, reactions were performed in the presence of 2 mM glutathione. Tested compounds were added to the reaction mixture dissolved in 0.75 μl of a solvent (1% of final incubation volume). Reaction mixtures were preincubated for 15 minutes at 37±1° C. Reactions were started by the addition of 25 μl of 12 mM MgATP (or 12 mM AMP) in test buffer, as a background control, separately preincubated.

For data set [3], the target named is T3, OATP1B1 (Homo sapiens, UniProt Q9Y6L6).
T3 construct: host or cells: HEK293
T3 sequence (Q9Y6L6 1-691): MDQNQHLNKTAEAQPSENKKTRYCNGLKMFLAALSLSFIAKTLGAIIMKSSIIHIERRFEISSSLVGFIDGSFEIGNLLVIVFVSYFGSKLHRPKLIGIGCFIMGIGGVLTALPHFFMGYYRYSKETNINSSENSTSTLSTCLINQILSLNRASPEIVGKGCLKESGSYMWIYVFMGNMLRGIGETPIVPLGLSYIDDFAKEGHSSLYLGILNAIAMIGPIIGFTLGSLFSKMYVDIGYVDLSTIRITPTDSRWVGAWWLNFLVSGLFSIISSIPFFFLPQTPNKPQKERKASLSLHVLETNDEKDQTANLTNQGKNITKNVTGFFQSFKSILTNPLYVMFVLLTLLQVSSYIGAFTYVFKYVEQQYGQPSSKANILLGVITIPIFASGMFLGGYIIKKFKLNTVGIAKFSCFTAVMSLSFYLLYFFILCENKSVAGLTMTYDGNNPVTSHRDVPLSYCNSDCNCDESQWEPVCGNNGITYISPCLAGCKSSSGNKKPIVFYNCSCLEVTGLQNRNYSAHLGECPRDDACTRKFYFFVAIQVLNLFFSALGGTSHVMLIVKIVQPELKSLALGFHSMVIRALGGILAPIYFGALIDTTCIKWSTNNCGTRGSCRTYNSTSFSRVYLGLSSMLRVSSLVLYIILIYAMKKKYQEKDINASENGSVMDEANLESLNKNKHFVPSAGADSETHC
The data set can be described thus: Uptake transporter inhibition assay, OATP1B1. The data set is classed as cell-based. The following applies: HEK293 cells overexpressing transporter. As to the method:
as §1, §2, §3, §4

Data set [4] deals with diabetes STZ-treated mice. Put plainly: Von Frey test on diabetes STZ-treated mice (tactile allodynia). The data set is classed as in vivo, mouse. As to conditions: 60 minutes after administration, mean of group. How it is done: Experiment B5: Von Frey Test on Diabetes STZ-Treated Mice.
Tactile allodynia was assessed by electronic von Frey apparatus (Bioseb) equipped with a flexible filament. Reaction to stimuli was assessed using growing applied pressure (from 0 to 10 g) on a plantar side of the hind foot of mice. Pregabalin was a control, as reference healthy mice with preserved normal response to the stimuli were used. In the day of the experiment, mice were placed separately in cages with a wire mesh bottom for 1 h for habituation to experimental conditions. After habituation period, each mouse was treated 3 times alternately, with 30 s intervals between each measurement, to obtain starting values (before administration of the compound) of pain sensitivity. […] The results are presented in Table 7 as mean value for all mice in a given group (n=7-10).

T2 sequence (Q92887 whole entry): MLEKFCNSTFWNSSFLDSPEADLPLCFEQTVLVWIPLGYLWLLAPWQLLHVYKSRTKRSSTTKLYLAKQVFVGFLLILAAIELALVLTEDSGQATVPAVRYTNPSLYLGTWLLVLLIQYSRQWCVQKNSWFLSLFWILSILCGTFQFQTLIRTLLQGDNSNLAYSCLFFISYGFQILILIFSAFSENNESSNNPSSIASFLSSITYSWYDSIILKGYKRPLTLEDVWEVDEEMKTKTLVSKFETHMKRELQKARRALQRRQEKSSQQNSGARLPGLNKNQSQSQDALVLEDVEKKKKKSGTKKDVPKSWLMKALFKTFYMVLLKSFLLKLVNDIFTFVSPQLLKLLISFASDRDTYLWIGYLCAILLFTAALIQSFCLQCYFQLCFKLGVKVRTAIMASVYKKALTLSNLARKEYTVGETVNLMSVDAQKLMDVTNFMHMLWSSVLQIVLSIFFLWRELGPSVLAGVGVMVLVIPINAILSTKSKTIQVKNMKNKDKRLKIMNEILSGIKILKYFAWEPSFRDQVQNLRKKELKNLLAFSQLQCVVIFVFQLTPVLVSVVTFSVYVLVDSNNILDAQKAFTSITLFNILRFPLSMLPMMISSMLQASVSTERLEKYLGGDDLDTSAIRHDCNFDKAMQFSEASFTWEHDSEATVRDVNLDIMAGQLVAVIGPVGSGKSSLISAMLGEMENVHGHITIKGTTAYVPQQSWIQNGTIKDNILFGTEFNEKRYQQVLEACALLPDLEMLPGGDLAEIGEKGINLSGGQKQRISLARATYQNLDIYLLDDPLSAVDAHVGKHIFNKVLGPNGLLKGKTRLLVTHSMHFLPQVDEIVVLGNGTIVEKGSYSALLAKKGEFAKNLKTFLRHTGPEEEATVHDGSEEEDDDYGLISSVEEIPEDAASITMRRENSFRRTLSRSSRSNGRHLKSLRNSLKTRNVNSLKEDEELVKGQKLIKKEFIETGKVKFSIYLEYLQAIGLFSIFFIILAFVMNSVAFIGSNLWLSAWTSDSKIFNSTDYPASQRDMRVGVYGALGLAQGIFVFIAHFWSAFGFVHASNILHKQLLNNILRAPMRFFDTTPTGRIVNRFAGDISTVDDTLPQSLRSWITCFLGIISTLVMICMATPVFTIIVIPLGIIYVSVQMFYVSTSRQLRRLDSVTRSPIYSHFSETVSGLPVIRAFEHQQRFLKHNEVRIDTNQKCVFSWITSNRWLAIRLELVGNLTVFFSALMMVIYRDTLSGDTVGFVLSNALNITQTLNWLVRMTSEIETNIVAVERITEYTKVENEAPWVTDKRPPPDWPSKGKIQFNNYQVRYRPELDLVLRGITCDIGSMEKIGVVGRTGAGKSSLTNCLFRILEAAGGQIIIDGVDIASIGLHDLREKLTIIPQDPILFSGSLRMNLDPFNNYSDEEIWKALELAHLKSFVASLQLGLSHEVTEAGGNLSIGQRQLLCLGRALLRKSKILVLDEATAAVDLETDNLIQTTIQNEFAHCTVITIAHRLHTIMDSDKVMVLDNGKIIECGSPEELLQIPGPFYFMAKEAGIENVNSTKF

In the case of `Cc1cc(OCCCS(C)(=O)=O)cc(C)c1-c1cccc(COc2ccc3c(c2)OC[C@H]3CC(=O)O)c1` [Example R1, 2[(3S)-6-({3-[4-(3-methanesulfonylpropoxy)-2,6-dimethylphenyl]-phenyl}methoxy)-2,3-dihydro-1-benzofuran-3-yl]acetic acid, reference compound], the concentration for half-maximal inhibition (IC50) in data set [1] amounted to 34.8 µM; in data set [2] (2 mM glutathione), 48.1 µM; in data set [3] it was 0.49 µM.
For the molecule `CC#C[C@@H](CC(=O)O)c1ccc(OCC(C)=C(C)C)cc1` [Example S1, (3S)-3-{4-[(2,3-dimethylbut-2-en-1-yl)oxy]phenyl}hex-4-ynoic acid calcium salt], the IC50 in data set [1] was 245 µM; in data set [2] (symbol per footnote), greater than 100 µM; in data set [3], 17.9 µM. For the same molecule, the “Applied pressure causing the response, sick animal (neuropathic) after compound administration” value in data set [4] (3 mg/kg p.o.) is reported as 1.85 g; in data set [4] (10 mg/kg p.o.), 2.34 g; in data set [4] (30 mg/kg p.o.) it was 3.36 g.
